Assays:
[1] = tested on: Patients undergoing radical retropubic prostatectomy (rrp) without bilateral sparing of the neurovascular bundles; assay: Randomised, double-blind placebo-controlled clinical trial: IIEF-15 scores after 4 months' treatment, rrp patients; format: in vivo, human; settings: rrp patients without nerve sparing
Method: (§1) To assess the activity of the combination according to the invention for the treatment of erectile dysfunction, a randomised, double-blind placebo-controlled clinical trial was conducted.
(§2) The patients entered into the trial had to meet the following inclusion criteria: • erectile dysfunction secondary to radical retropubic prostatectomy, with or without bilateral sparing of the neurovascular bundles, in patients in whom the prostatectomy had been performed at least 6 months but less than 2 years prior to entry into the clinical trial; • complete erectile function prior to the prostatectomy (this information had to be confirmed by the partner or documented in the patient's hospital file; • not on medical treatment for prostate cancer; • not on treatment for erectile dysfunction before or after prostatectomy; • normal total and free prostate antigen values; • involvement in a heterosexual relationship for at least 6 months prior to surgery.
(§3) The patients recruited into the study were divided into two main groups on the basis of whether or not they had undergone bilateral nerve sparing surgery (rrp and bnsrrp).
(§4) These two groups were further subdivided into the following subsets:
(§5) c) sildenafil 100 mg+propionyl L-carnitine 2 g+acetyl L-carnitine 2 g;
(§6) d) propionyl L-carnitine 2 g;
(§7) e) acetyl L-carnitine 2 g.
(§8) f) propionyl L-carnitine 2 g+acetyl L-carnitine 2 g;
(§9) g) sildenafil 100 mg+propionyl L-carnitine 2 g;
(§10) h) sildenafil 100 mg+acetyl L-carnitine 2 g.
(§11) The carnitines (acetyl L-carnitine and propionyl L-carnitine) were administered orally twice daily (1 g×2/day).
(§12) Sildenafil was administered (as required) and taken 1-2 hours before sexual intercourse at a dose of 100 mg.
(§13) The placebo was administered in the place of acetyl L-carnitine and/or propionyl L-carnitine and/or sildenafil.
(§14) After 4 months' treatment the following variables were analysed:
(§15) 1. erectile function (evaluated by “IIEF-15” scores: IIEF=International Index of Erectile Function);
(§16) 2. satisfaction with sexual intercourse (IIEF-15);
(§17) 4. general sexual well-being (IIEF-15);

[2] = tested on: Patients undergoing bilateral nerve-sparing radical retropubic prostatectomy (bnsrrp); assay: Clinical trial: recording of nocturnal penile tumescence (NPT) with RigiScan, bnsrrp patients; format: in vivo, human; settings: total duration over three nights
Method: as §1, §2, §3, §4, §5, §6, §7, §8, §9, §10, §11, §12, §13, §14
(§18) 5. recording of nocturnal penile tumescence (NPT) [evaluated with RigiScan (Dacomed-Minnesota). A >70% increase in rigidity compared to baseline at the base of the penis and >60% at the upper end of the penis, a >2 cm increase in circumference at the upper end of the penis and >3 cm at the base were considered “complete erection”. The total duration (minutes) of the recording period on three nights was assessed.

[3] = tested on: Patients undergoing radical retropubic prostatectomy (rrp) without bilateral sparing of the neurovascular bundles; assay: Clinical trial: recording of nocturnal penile tumescence (NPT) with RigiScan, rrp patients; format: in vivo, human; settings: rrp patients without nerve sparing, total duration over three nights
Method: as §1, §2, §3, §4, §5, §6, §7, §8, §9, §10, §11, §12, §13, §14, §18

[4] = tested on: Patients undergoing bilateral nerve-sparing radical retropubic prostatectomy (bnsrrp); assay: Randomised, double-blind placebo-controlled clinical trial: IIEF-15 scores after 4 months' treatment, bnsrrp patients; format: in vivo, human
Method: as §1, §2, §3, §4, §5, §6, §7, §8, §9, §10, §11, §12, §13, §14, §15, §16, §17

[5] = tested on: patients undergoing bnsrrp; settings: cited from earlier work
patients undergoing rrp = settings: cited from earlier work
[6] = after therapy (4 months' treatment)

Compound: CCCc1nn(C)c2c(=O)[nH]c(-c3cc(S(=O)(=O)N4CCN(C)CC4)ccc3OCC)nc12 [Sildenafil 100 mg, sildenafil]
- Erectile function, mean ± s.d. [1, 6]: 9.2 ± 1.9 IIEF 15 score
- General sexual well-being, mean ± s.d. [1, 6]: 2.4 ± 2.0 IIEF 15 score
- Orgasm, mean ± s.d. [1, 6]: 2.2 ± 0.9 IIEF 15 score
- Satisfaction with sexual intercourse, mean ± s.d. [1, 6]: 2.9 ± 1.6 IIEF 15 score
- Erectile function, mean ± s.d. ([1]; before therapy (baseline)): 3.8 ± 2.9 IIEF 15 score
- General sexual well-being, mean ± s.d. ([1]; before therapy (baseline)): 1.1 ± 0.8 IIEF 15 score
- Orgasm, mean ± s.d. ([1]; before therapy (baseline)): 0.9 ± 0.6 IIEF 15 score
- Satisfaction with sexual intercourse, mean ± s.d. ([1]; before therapy (baseline)): 1.3 ± 0.8 IIEF 15 score
- Recording of nocturnal penile tumescence (NPT), mean ± s.d. [2, 6]: 85.9 ± 14.3 min
- Recording of nocturnal penile tumescence (NPT), mean ± s.d. ([2]; before therapy (baseline)): 70.4 ± 13.2 min
- Recording of nocturnal penile tumescence (NPT), mean ± s.d. [3, 6]: 39.1 ± 7.9 min
- Recording of nocturnal penile tumescence (NPT), mean ± s.d. ([3]; before therapy (baseline)): 37.1 ± 8.5 min
- Erectile function, mean ± s.d. [4, 6]: 21.7 ± 6.8 IIEF 15 Score
- General sexual well-being, mean ± s.d. [4, 6]: 5.4 ± 2.7 IIEF 15 score
- Orgasm, mean ± s.d. [4, 6]: 5.9 ± 2.9 IIEF 15 score
- Satisfaction with sexual intercourse, mean ± s.d. [4, 6]: 4.8 ± 2.5 IIEF 15 score
- Erectile function, mean ± s.d. ([4]; before therapy (baseline)): 11.9 ± 4.0 IIEF 15 Score
- General sexual well-being, mean ± s.d. ([4]; before therapy (baseline)): 2.7 ± 1.0 IIEF 15 score
- Orgasm, mean ± s.d. ([4]; before therapy (baseline)): 3.0 ± 0.9 IIEF 15 score
- Satisfaction with sexual intercourse, mean ± s.d. ([4]; before therapy (baseline)): 3.1 ± 1.1 IIEF 15 score
- Patients with recovery of sexual function [5]: approximately 45%
- Patients with recovery of sexual function (patients undergoing rrp): approximately 15%

Compound: CC(=O)O[C@H](CC(=O)[O-])C[N+](C)(C)C [Acetyl L-carnitine 2 g, acetyl L-carnitine]
- Erectile function, mean ± s.d. [1, 6]: 4.1 ± 1.0 IIEF 15 score
- General sexual well-being, mean ± s.d. [1, 6]: 1.2 ± 0.5 IIEF 15 score
- Orgasm, mean ± s.d. [1, 6]: 0.9 ± 0.4 IIEF 15 score
- Satisfaction with sexual intercourse, mean ± s.d. [1, 6]: 1.9 ± 0.6 IIEF 15 score
- Erectile function, mean ± s.d. ([1]; before therapy (baseline)): 3.2 ± 1.1 IIEF 15 score
- General sexual well-being, mean ± s.d. ([1]; before therapy (baseline)): 1.0 ± 0.4 IIEF 15 score
- Orgasm, mean ± s.d. ([1]; before therapy (baseline)): 0.8 ± 0.6 IIEF 15 score
- Satisfaction with sexual intercourse, mean ± s.d. ([1]; before therapy (baseline)): 1.8 ± 0.8 IIEF 15 score
- Recording of nocturnal penile tumescence (NPT), mean ± s.d. [2, 6]: 79.0 ± 12.3 min
- Recording of nocturnal penile tumescence (NPT), mean ± s.d. ([2]; before therapy (baseline)): 70.8 ± 14.9 min
- Recording of nocturnal penile tumescence (NPT), mean ± s.d. [3, 6]: 38.2 ± 5.7 min
- Recording of nocturnal penile tumescence (NPT), mean ± s.d. ([3]; before therapy (baseline)): 37.7 ± 8.8 min
- Erectile function, mean ± s.d. [4, 6]: 17.2 ± 3.5 IIEF 15 Score
- General sexual well-being, mean ± s.d. [4, 6]: 3.9 ± 1.1 IIEF 15 score
- Orgasm, mean ± s.d. [4, 6]: 4.0 ± 0.9 IIEF 15 score
- Satisfaction with sexual intercourse, mean ± s.d. [4, 6]: 4.0 ± 1.1 IIEF 15 score
- Erectile function, mean ± s.d. ([4]; before therapy (baseline)): 11.3 ± 3.8 IIEF 15 Score
- General sexual well-being, mean ± s.d. ([4]; before therapy (baseline)): 2.9 ± 1.0 IIEF 15 score
- Orgasm, mean ± s.d. ([4]; before therapy (baseline)): 3.2 ± 1.1 IIEF 15 score
- Satisfaction with sexual intercourse, mean ± s.d. ([4]; before therapy (baseline)): 3.1 ± 1.1 IIEF 15 score

Compound: CCC(=O)O[C@H](CC(=O)[O-])C[N+](C)(C)C [Propionyl L-carnitine 2 g, propionyl L-carnitine]
- Erectile function, mean ± s.d. [1, 6]: 4.0 ± 1.1 IIEF 15 score
- General sexual well-being, mean ± s.d. [1, 6]: 1.4 ± 0.5 IIEF 15 score
- Orgasm, mean ± s.d. [1, 6]: 1.0 ± 0.3 IIEF 15 score
- Satisfaction with sexual intercourse, mean ± s.d. [1, 6]: 1.9 ± 0.6 IIEF 15 score
- Erectile function, mean ± s.d. ([1]; before therapy (baseline)): 3.3 ± 1.1 IIEF 15 score
- General sexual well-being, mean ± s.d. ([1]; before therapy (baseline)): 1.3 ± 0.5 IIEF 15 score
- Orgasm, mean ± s.d. ([1]; before therapy (baseline)): 0.7 ± 0.3 IIEF 15 score
- Satisfaction with sexual intercourse, mean ± s.d. ([1]; before therapy (baseline)): 1.7 ± 0.4 IIEF 15 score
- Recording of nocturnal penile tumescence (NPT), mean ± s.d. [2, 6]: 77.1 ± 16.1 min
- Recording of nocturnal penile tumescence (NPT), mean ± s.d. ([2]; before therapy (baseline)): 68.2 ± 13.5 min
- Recording of nocturnal penile tumescence (NPT), mean ± s.d. [3, 6]: 36.4 ± 5.3 min
- Recording of nocturnal penile tumescence (NPT), mean ± s.d. ([3]; before therapy (baseline)): 35.0 ± 9.1 min
- Erectile function, mean ± s.d. [4, 6]: 18.1 ± 3.2 IIEF 15 Score
- General sexual well-being, mean ± s.d. [4, 6]: 4.1 ± 0.9 IIEF 15 score
- Orgasm, mean ± s.d. [4, 6]: 4.1 ± 1.1 IIEF 15 score
- Satisfaction with sexual intercourse, mean ± s.d. [4, 6]: 3.9 ± 1.1 IIEF 15 score
- Erectile function, mean ± s.d. ([4]; before therapy (baseline)): 12.2 ± 3.9 IIEF 15 Score
- General sexual well-being, mean ± s.d. ([4]; before therapy (baseline)): 2.9 ± 1.6 IIEF 15 score
- Orgasm, mean ± s.d. ([4]; before therapy (baseline)): 3.0 ± 1.1 IIEF 15 score
- Satisfaction with sexual intercourse, mean ± s.d. ([4]; before therapy (baseline)): 3.2 ± 1.2 IIEF 15 score
